Laboratory results from patent publication US20200190101A1, “Composition Containing Novel Glutamic Acid Derivative And Block Copolymer, And Use Thereof” (Nippon Kayaku Kabushiki Kaisha, priority 2015, published 2020).

How the values were obtained:
[1] = tested on: γ-glutamyl transpeptidase (GGT); test: γ-Glutamyl transpeptidase (GGT) enzyme recognition test; format: biochemical; conditions: 2 mM PBS solution + 2 U/mL GGT solution, 37° C.; for Residual ratio of unchanged drug: HPLC
Procedure: To 0.150 mL of this doxorubicin-bonded glutamic acid derivative (prodrug) PBS solution, 0.150 mL of a 2 U/mL GGT solution obtained by dissolving GGT (0.22 mg, 8 U/mg) (Sigma-Aldrich Company) in PBS (0.880 mL) was added, and the mixture was allowed to react at 37° C.
The reaction liquid was analyzed by HPLC, and thus the residual ratio of the doxorubicin-bonded glutamic acid derivative (prodrug) and the production ratio of doxorubicin were determined.
To 0.100 mL of the doxorubicin-bonded glutamic acid derivative PBS solution, 0.100 mL of a 2 U/mL GGT solution obtained by dissolving GGT (0.38 mg, 8 U/mg) (Sigma-Aldrich Company) in PBS (1.520 mL) was added, and the mixture was allowed to react at 37° C. […]

[2] = tested on: OS-RC-2 cells having high GGT activity; test: cells; format: cell-based, human; conditions: Homo sapiens; OS-RC-2 cells, 10 μM, 6 hours exposure then 3 days incubation; read-out: Cell proliferation inhibitory activity
Procedure: (§1) After the cells were incubated for 6 hours, the interior of the wells was washed, and after the cells were further incubated for 3 days, the cells were immobilized with methanol and stained using Methylene Blue dye. After staining, the dye was extracted with a 0.3% aqueous solution of hydrochloric acid was extracted, and the light absorbance at 660 nm was measured. For the light absorbance thus obtained, the cell proliferation suppressive activity was evaluated based on the reduction ratio for the light absorbance measured from cells to which the compound was not added.
(§2) By a similar operation, the cell proliferation suppressive activity was evaluated from the light absorbance, using doxorubicin that was not converted to a glutamic acid derivative. The results are shown in FIG. 1 (OS-RC-2 cells having high GGT activity) and FIG. 2 (SK-OV-3 cells having low GGT activity).
(§3) The cell proliferation inhibitory activity of the EHC-bonded glutamic acid derivative according to Synthesis Example 6 was evaluated using OS-RC-2 cells (RIKEN BioResource Center), which are known to have high GGT activity, and SK-OV-3 cells (American Type Culture Collection), which are known to have low GGT activity.
(§4) On a 96-well plate, OS-RC-2 cells having high GGT activity and SK-OV-3 cells having low GGT activity were each inoculated in an amount of 4,000 cells/well and were incubated for one day at 37° C. and 5% CO2, and then the EHC prodrug according to Synthesis Example 6 was added to the cells at a final concentration of 0.0001 to 1 μM. After the cells were incubated for 6 hours, the interior of the wells was washed, and the cells were further incubated for 3 days. After the incubation, the cells were immobilized with methanol and were stained using Methylene Blue dye. After staining, the dye was extracted with a 0.3% aqueous solution of hydrochloric acid, and the light absorbance at 660 nm was measured. The cell proliferation suppressive activity was evaluated based on the reduction ratio for the light absorbance thus obtained, with respect to the light absorbance measured from cells to which the compound was not added.
(§5) By a similar operation, EHC, which was an active ingredient of Synthesis Example 6, was used without modification, and the cell proliferation suppressive activity was evaluated from the light absorbance.

[3] = tested on: SK-OV-3 cells having low GGT activity; test: cells; format: cell-based; conditions: Homo sapiens; SK-OV-3 cells, 10 μM, 6 hours exposure then 3 days incubation; read-out: Cell proliferation inhibitory activity
Procedure: as §1, §2, §3, §4, §5

[4] = tested on: OS-RC-2 cells having high GGT activity; format: cell-based, human; conditions: GGsTop 10 μM, compound 0.039 to 10 μM
Procedure: OS-RC-2 cells were inoculated by a method similar to that of Test Example 3. […] After the cells were incubated for 6 hours, the interior of the wells was washed, and after the cells were further incubated for 3 days, the cell proliferation suppressive activity was evaluated by a method similar to that of Test Example 3.
By a similar operation, the cell proliferation suppressive activity was evaluated using doxorubicin that was not glutamic acid-derivatized, from the light absorbance of the compound.
The GGT activity dependency of the cell proliferation inhibitory activity of the EHC-bonded glutamic acid derivative according to Synthesis Example 6 was evaluated using OS-RC-2 cells having high GGT activity.
OS-RC-2 cells were inoculated by a method similar to that of Test Example 10. After the cells were incubated for one day, GGsTop (Wako Pure Chemical Industries, Ltd.), which is a GGT inhibitor, was added to the cells at a final concentration of 10 μM, and the cells were incubated for one hour. Subsequently, the EHC-bonded glutamic acid derivative according to Synthesis Example 6 was added to the cells at a final concentration of 0.0001 to 1 μM. After the cells were incubated for 6 hours, the interior of the wells was washed, and after the cells were incubated for 3 days, the cell proliferation suppressive activity was evaluated by a method similar to that of Test Example 10.
By a similar operation, the cell proliferation suppressive activity was evaluated using EHC, which is the active ingredient of Synthesis Example 6, from the light absorbance of the compound.

[5] = tested on: human renal cell cancer OS-RC-2 tumors; test: Test on antitumor effect of Synthesis Example 1, OS-RC-2 tumors; format: in vivo, SCID mice; conditions: two times at an interval of 14 days
Procedure: By an operation similar to that of Test Example 12, human renal cell cancer OS-RC-2 tumors were subcutaneously transplanted into SCID mice, and tumor engraftment was confirmed.
(§6) After the administration, the major axis (L) and the minor axis (W) of a tumor were measured using calipers at an interval of 2 to 3 days, the tumor volume was calculated by the formula: (L×W^2)/2, and the tumor volume change rate from the administration initiation day was determined.

[6] = tested on: human ovarian cancer SHIN-3 tumors; test: Test on antitumor effect of Synthesis Example 1, SHIN-3 tumors; format: in vivo; conditions: three times at an interval of 7 days
Procedure: By an operation similar to that of Test Example 12, human ovarian cancer SHIN-3 tumors were subcutaneously transplanted into SCID mice, and tumor engraftment was confirmed.
as §6

[7] = Test on pharmacokinetics of Example 1 (blood plasma); format: in vivo, mice; conditions: mouse, iv, 10 mg/kg in terms of DXR i.v., read-out: AUC0-6 hr. Unchanged drug (DXR prodrug)
Procedure: At time points of 5 minutes, 1 hour, 3 hours, and 6 hours after administration, blood plasma was collected under ether anesthesia.

[8] = 20 mg/kg-administered group, i.v.

For COc1cccc2c1C(=O)c1c(O)c3c(c(O)c1C2=O)C[C@@](O)(C(=O)CO)CC3OC1CC(NC(=O)OCc2ccc(NC(=O)CCC(N)C(=O)O)cc2)C(O)C(C)O1 (stereo partly drawn) [Synthesis Example 1, (((4-((S)-4-amino-4-carboxybutanamide)benzyl)oxy)carbonyl)doxorubicin], the Doxorubicin production rate ([1]; reaction time 0 hr) was 0%, the “Residual ratio of unchanged drug” value ([1]; reaction time 0 hr) was 100% and the Doxorubicin production rate ([1]; reaction time 1 hr) was 49%. For the same compound, the “Residual ratio of unchanged drug” value ([1]; reaction time 1 hr) was 39%, the Doxorubicin production rate ([1]; reaction time 6.5 hr) was 98% and the “Residual ratio of unchanged drug” value ([1]; reaction time 6.5 hr) was 1%. For the same compound, the inhibition at 10 µM [2] was 76%, the inhibition at 10 µM [3] was 13% and the “Effect of GGT inhibitor on cell proliferation suppressive activity” value [4] was “completely inhibited the activity”. The “Antitumor effect (relative tumor volume) versus control drug” value [5, 8] was “antitumor effect that was equal to the effect of the doxorubicin hydrochloride-administered group (5 mg/kg)”, the “Antitumor effect (relative tumor volume)” value ([5]; 5 or 20 mg/kg i.v.) was “dose-dependent antitumor effect” and the “Antitumor effect (relative tumor volume) versus control drug” value [6, 8] was “antitumor effect that was equivalent to that of the control drug”. For the same compound, the “Antitumor effect (relative tumor volume)” value ([6]; 5 or 20 mg/kg i.v.) was “dose-dependent antitumor effect” and the AUC(0-t) [7] was 6240 ng·h/mL.
